Measured values from US10159249B2 (BAYER CROPSCIENCE AKTIENGESELLSCHAFT, priority 2013, dated 2018).
Like-named read-outs stand apart in the source and are kept apart here.

Assays:
[1] = target: FMP22 (SEQ ID No 11) (Rhodococcus jostii, UniProt A0ABU4CPN1); assay: HPPD activity in presence of inhibitor, HGD assay; assay type: biochemical, Rhodococcus sp. (strain RHA1), isolate ro03041; conditions: 0.2 μM inhibitor
Description: (§1) With the HGD assay HPPD activity was measured at room temperature by adding appropriate amounts of HPPD to a solution of 200 mM Tris-HCl pH 7.6, 10 mM ascorbate, 20 μM FeSO4, 650 units of catalase, 8 μg HGA dioxygenase (HGA: homogentisate) and 600 μM HPP in a total volume of 1 ml. Initial reaction rates were determined from the increase in absorbance at 318 nm due to the formation of maleylacetoacetate (ε318=11,900 M-1 cm-1).
(§2) In cases, the symbol “>” is used this means that the value was far higher than the one indicated but could not be precisely calculated within in the range of concentration of inhibitor tested.
(§3) In the 1st column of Table 1, the HPPD employed in the assay is named and in the 2nd column of Table 1, the corresponding SEQ ID No of present invention is disclosed.

[2] = tested on: transgenic soybean T1 plants expressing PfHPPD-G336W; assay type: in vivo; conditions: for number of events, herbicide tolerance class 0 (41%-100% damaged leaf area) / number of events, herbicide tolerance class 1 (16%-40% damaged leaf area) / number of events, herbicide tolerance class 2 (6%-15% damaged leaf area) / number of events, herbicide tolerance class 3 (0%-5% damaged leaf area): scored after 21 days
[3] = tested on: Digitaria horizontalis; assay: Field trial, weed efficacy, post applied; assay type: in vivo; conditions: (A) 50 g ai/ha; application at 2 tillers; assessment 14 days after application
[4] = tested on: Axmi309H (SEQ ID No 35); assay: HPPD activity in presence of inhibitor, HGD assay; assay type: biochemical, Pseudomonas agarici
Description: as §1, §2, §3

[5] = tested on: Axmi309H-Evo41 (SEQ ID No 37); assay: HPPD activity in presence of inhibitor, HGD assay; assay type: biochemical, Pseudomonas agarici
Description: as §1, §2, §3

[6] = tested on: Ipomoea aristolochiaefolia; conditions: application at 6 leaf stage, assessment 14 days after application
[7] = target: T1, PfHPPD (SEQ ID No 46) (Pseudomonas sp., UniProt P80064); assay: HPPD activity in presence of inhibitor, HGD assay; assay type: biochemical, Pseudomonas fluorescens
T1 construct: made in house; host or cells: E. coli K-12 BL21, vector pSE420(RI)NX-PfHPPD
T1 sequence (P80064 other isoform, or with tags, fused parts or gaps with the stated changes): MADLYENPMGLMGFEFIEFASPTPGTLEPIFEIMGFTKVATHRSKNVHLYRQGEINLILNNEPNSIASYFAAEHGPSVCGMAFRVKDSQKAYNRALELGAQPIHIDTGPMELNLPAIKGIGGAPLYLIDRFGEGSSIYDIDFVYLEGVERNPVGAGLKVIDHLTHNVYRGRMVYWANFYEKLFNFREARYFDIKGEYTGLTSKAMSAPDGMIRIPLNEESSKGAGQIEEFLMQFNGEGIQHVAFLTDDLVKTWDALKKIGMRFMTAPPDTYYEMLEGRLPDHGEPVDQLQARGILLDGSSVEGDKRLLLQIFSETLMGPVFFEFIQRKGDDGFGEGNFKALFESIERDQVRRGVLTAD
Description: as §1, §2, §3

[8] = tested on: maize transgenic T0 events expressing Axmi309H-Evo41; assay type: in vivo; conditions: 100 g AI/ha, six days after application
Description: (§4) Regenerated T0 events from tissue culture were transplanted into two inch square pots with synthetic soil (Fafard® Mix) and controlled-released fertilizer (Haifa Multicote™; polymer-coated controlled-release fertilizer, NPK Pro 18-6-12+Micronutrients) and cultivated in the greenhouse (GH) under supplementary high pressure sodium light for 12 days at a maximum of 30° C. during the day and a minimum of 22° C. at night. Fully recovered plants were transferred into five inch square pots filled with synthetic soil and control released fertilizer under the same environmental conditions. […] All herbicide treatments were conducted in a DeVries Tracker Sprayer system with standard application protocols, which are well known in the art.
A rating of “1” was assigned to plants having a moderate tolerance with 16% to 40% damage of total leaf area. A rating of “2” was assigned to plants with good tolerance within the range of 6% to 15% damage of total leaf area.

[9] = tested on: Non-transformed maize plants; assay: Greenhouse trial, maize plants, leaf damage; assay type: in vivo; conditions: 25 g AI/ha
Description: as §4, with “art. As a spray control T0 events have been sprayed with the adjunvant mixture lacking the herbicide.” for “art.”

[10] = target: PfHPPD336W (SEQ ID No 4) (Pseudomonas sp., UniProt P80064, G335W); assay: biochemical; parameters: species or system Pseudomonas fluorescens
Chain of PfHPPD336W (SEQ ID No 4) (P80064 1-354 with tags or gaps with the stated changes): as the sequence (P80064 other isoform, or with tags, fused parts or gaps with the stated changes) above, with G336W counted along it

[11] = room temperature, 600 μM HPP, molar concentration

Chain of FMP22 (SEQ ID No 11) (A0ABU4CPN1 1-401): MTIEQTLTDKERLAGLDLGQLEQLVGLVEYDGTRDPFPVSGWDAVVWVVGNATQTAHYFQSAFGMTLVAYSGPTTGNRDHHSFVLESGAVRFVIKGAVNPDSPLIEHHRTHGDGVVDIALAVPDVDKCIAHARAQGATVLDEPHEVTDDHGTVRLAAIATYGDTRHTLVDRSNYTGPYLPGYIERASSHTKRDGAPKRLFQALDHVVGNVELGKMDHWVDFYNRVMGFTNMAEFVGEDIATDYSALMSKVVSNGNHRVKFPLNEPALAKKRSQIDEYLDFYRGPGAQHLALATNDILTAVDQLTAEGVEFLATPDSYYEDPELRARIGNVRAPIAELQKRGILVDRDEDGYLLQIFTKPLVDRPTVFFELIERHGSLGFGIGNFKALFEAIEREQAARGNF

Q: Which results are given for `CSc1c(C(F)(F)F)ccc(C(=O)Nc2nnnn2C)c1Cl`?
A: inhibition at 0.2 µM [1]: 0%; number of events, herbicide tolerance class 0 (41%-100% damaged leaf area) ([2]; 6.25 g AI/ha): 0; number of events, herbicide tolerance class 1 (16%-40% damaged leaf area) ([2]; 6.25 g AI/ha): 0; number of events, herbicide tolerance class 2 (6%-15% damaged leaf area) ([2]; 6.25 g AI/ha): 0; number of events, herbicide tolerance class 3 (0%-5% damaged leaf area) ([2]; 6.25 g AI/ha): 12; number of events, herbicide tolerance class 0 (41%-100% damaged leaf area) ([2]; 25 g AI/ha): 0; number of events, herbicide tolerance class 1 (16%-40% damaged leaf area) ([2]; 25 g AI/ha): 0; number of events, herbicide tolerance class 2 (6%-15% damaged leaf area) ([2]; 25 g AI/ha): 0; number of events, herbicide tolerance class 3 (0%-5% damaged leaf area) ([2]; 25 g AI/ha): 16; number of events, herbicide tolerance class 0 (41%-100% damaged leaf area) ([2]; 50 g AI/ha): 0; number of events, herbicide tolerance class 1 (16%-40% damaged leaf area) ([2]; 50 g AI/ha): 4; number of events, herbicide tolerance class 2 (6%-15% damaged leaf area) ([2]; 50 g AI/ha): 0; number of events, herbicide tolerance class 3 (0%-5% damaged leaf area) ([2]; 50 g AI/ha): 0; number of events, herbicide tolerance class 0 (41%-100% damaged leaf area) ([2]; 75 g AI/ha): 0; number of events, herbicide tolerance class 1 (16%-40% damaged leaf area) ([2]; 75 g AI/ha): 3; number of events, herbicide tolerance class 2 (6%-15% damaged leaf area) ([2]; 75 g AI/ha): 1; number of events, herbicide tolerance class 3 (0%-5% damaged leaf area) ([2]; 75 g AI/ha): 0; herbicide tolerance ([2]; in vivo): high tolerance; Efficacy (%) Digitaria horizontalis [3]: 70%; % inhibition at 0.2 μM ([4]; 0.2 μM inhibitor): 78%; pI50 [4, 11]: 7.1; % inhibition at 0.2 μM ([5]; 0.2 μM inhibitor): 26%; pI50 [5, 11]: 6.5; Efficacy (%) Ipomoea aristolochiaefolia ([6]; (A) 25 g ai/ha): 10%; Efficacy (%) Ipomoea aristolochiaefolia ([6]; (A) 50 g ai/ha): 15%; inhibition at 0.2 µM ([7]; 0.2 μM inhibitor): 76%; IC50 ([7]; room temperature, 600 μM HPP, molar concentration, read-out: pI50 (converted)): 100 nM; number of events, herbicide tolerance class 0 (41%-100% damaged leaf area) [8]: 5; number of events, herbicide tolerance class 1 (16%-40% damaged leaf area) [8]: 9; number of events, herbicide tolerance class 2 (6%-15% damaged leaf area) [8]: 16; number of events, herbicide tolerance class 3 (0%-5% damaged leaf area) [8]: 6; leaf damage [9]: 100%; IC50 [10]: 200 nM; % inhibition at 0.2 μM ([10]; 0.2 μM inhibitor, HGD assay): 76%
